Assay results as given in PubChem BioAssay AID2060494 (Molecular Pharmacology Branch, DTP, NCI, 2025).

System: 435261-313-R-J1-PDC complex spheroid viability
Experiment: Anticancer human tumor 435261-313-R-J1-PDC patient-derived colon adenocarcinoma cell line growth inhibition [GQUAD]
Details: for IC50: curve of first compound; for viability, T/C: stronger effect = lower value
Source text: DNA G-quadruplex Stabilizer Agents in Combinations in Complex Spheroids
A high-throughput screen of multi-cell type tumor spheroids was designed to identify active combinations of DNA G-quadruplex stabilizer agents and targeted small molecules. Complex spheroids include a stromal component modeled by human endothelial cells (HUVEC) and fibroblasts modeled by human mesenchymal stem cells (MSCs). The concentration ranges selected for each drug and investigational agent were based upon clinically achievable concentrations if the clinical Cmax of the agent was known.
Compounds. The drugs and investigational agents: pidnarulex (CX-5461; NSC782164), APTO-253 (NSC789042), BRACO-19 (NSC847499), peposertib (NSC802822), ceralasertib (NSC780249), elimusertib (NSC800525), camonsertib (NSC841442), AZD-1390 (NSC803789), olaparib (NSC753686), talazoparib (NSC767125), ART-558 (NSC835418), sotorasib (NSC818433), MRTX-1133 (NSC836407), SN-38 (NSC673596), topotecan (NSC609699), etoposide (NSC141540), doxorubicin (NSC123127), gemcitabine (NSC613327), 5-fluorouracil (NSC19893), paclitaxel (NSC125973), vemurafenib (NSC761431), panobinostat (NSC761190), R-306465 (JNJ-16241199; NSC773264), adavosertib (NSC754352), TP-3654 (NSC805149), carboplatin (NSC241240), KSQ-4279 (NSC840948), and staurosporine (NSC755774) were obtained from the National Cancer Institute (NCI) Developmental Therapeutics Program Chemical Repository (34). The FDA-approved anticancer drug set is available from the NCI Developmental Therapeutics Program. […] The stock solutions were prepared in dimethyl sulfoxide (DMSO, Sigma-Aldrich, St. Louis, MO, cat. D2650) at 800-fold the tested concentration and stored at -70 degrees C prior to their use. All drugs and investigational agents were tested over a range starting from a high concentration at or near the clinical Cmax and decreasing in half-log increments. If the clinical Cmax for an agent had not been determined, the highest concentration tested was 10 microM.
2.3 Cell Culture. All cells were maintained in an incubator at 37 degrees C and 5% CO2 with 95% humidity. The PDC lines were cultured according to standard operating procedures established by the NCI PDMR. All PDCs were thawed and cultured in Matrigel-coated flasks prepared with a working solution of 1X Ham's F-12 nutrient mix, without supplementation (Invitrogen, cat. 11765054), 100 U/mL penicillin-streptomycin (Invitrogen, cat. 15140122), and 2.5% Matrigel (Corning Inc., cat. 354248) for the first three passages. The 857933-349-R-J2-PDC line was cultured in 6C/Colon 1B media, which includes advanced DMEM/F-12 (Thermo Fisher Scientific, cat. 12634028), 10 mM HEPES (Thermo Fisher Scientific, cat. 15630080), 1X GlutaMAX supplement (Thermo Fisher Scientific, cat. 35050061), 0.1 mg/mL primocin (InvivoGen, cat. ant-pm-2), 10% defined fetal bovine serum, heat inactivated (HyClone Laboratories Inc., cat. SH30070.03HI), 50% L-WRN conditioned media (ATCC, cat. CRL-3276), 1.25 mM N-Acetyl-L-cysteine (Sigma-Aldrich, cat. A9165), 10 mM nicotinamide (Sigma-Aldrich, cat. N0636), 1X B-27 supplement (Thermo Fisher Scientific, cat. 17504044), 1X N-2 supplement (Thermo Fisher Scientific, cat. 17502048), 10 microM Y-27632 dihydrochloride (Tocris Bioscience, cat. 1254), and 50 ng/mL human EGF recombinant protein (Thermo Fisher Scientific, cat. PHG0311). The 485176-168-R4-J1-PDC line was cultured in Panc media, which includes all 6C/Colon 1B media components plus 100 ng/mL human FGF-10 (Thermo Fisher Scientific, cat. 100-26), 500 nM SB-431542 (Selleckchem, cat. S1067), and gastrin (Tocris, cat. 3006).
[…]

[1] = second compound 0.0316 µM, first compound 0.0316 µM
[2] = second compound 0.0316 µM, first compound 0.1 µM
[3] = second compound 0.0316 µM, first compound 0.316 µM
[4] = second compound 0.0316 µM, first compound 1 µM
[5] = second compound 0.0316 µM, first compound 3.16 µM
[6] = second compound 0.0316 µM, first compound 10 µM
[7] = second compound 0.1 µM, first compound 0.0316 µM
[8] = second compound 0.1 µM, first compound 0.1 µM
[9] = second compound 0.1 µM, first compound 0.316 µM
[10] = second compound 0.1 µM, first compound 1 µM
[11] = second compound 0.1 µM, first compound 3.16 µM
[12] = second compound 0.1 µM, first compound 10 µM
[13] = second compound 0.316 µM, first compound 0.0316 µM
[14] = second compound 0.316 µM, first compound 0.1 µM
[15] = second compound 0.316 µM, first compound 0.316 µM
[16] = second compound 0.316 µM, first compound 1 µM
[17] = second compound 0.316 µM, first compound 3.16 µM
[18] = second compound 0.316 µM, first compound 10 µM
[19] = second compound 1 µM, first compound 0.0316 µM
[20] = second compound 1 µM, first compound 0.1 µM
[21] = second compound 1 µM, first compound 0.316 µM
[22] = second compound 1 µM, first compound 1 µM
[23] = second compound 1 µM, first compound 3.16 µM
[24] = second compound 1 µM, first compound 10 µM
[25] = second compound 3.16 µM, first compound 0.0316 µM
[26] = second compound 3.16 µM, first compound 0.1 µM
[27] = second compound 3.16 µM, first compound 0.316 µM
[28] = second compound 3.16 µM, first compound 1 µM
[29] = second compound 3.16 µM, first compound 3.16 µM
[30] = second compound 3.16 µM, first compound 10 µM
[31] = second compound 10 µM, first compound 0.0316 µM
[32] = second compound 10 µM, first compound 0.1 µM
[33] = second compound 10 µM, first compound 0.316 µM
[34] = second compound 10 µM, first compound 1 µM
[35] = second compound 10 µM, first compound 3.16 µM
[36] = second compound 10 µM, first compound 10 µM
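Further: spheroids exposed to the agents for seven days before readout.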
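Wherever viability, T/C is given: percent of vehicle control viability with DMSO wells as 100%.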

CC(C)n1c(=O)n(C)c2cnc3cc(F)c(-c4ccc(OCCCN5CCCCC5)nc4)cc3c21 + CN(C)c1ccc(Nc2c3ccc(NC(=O)CCN4CCCC4)cc3nc3cc(NC(=O)CCN4CCCC4)ccc23)cc1
IC50 (second compound 0.0316 µM): > 10000 nM
IC50 (second compound 0.1 µM): 7000 nM
IC50 (second compound 0.316 µM): 6840 nM
IC50 (second compound 1 µM): 7580 nM
IC50 (second compound 3.16 µM): 167 nM
IC50 (second compound 10 µM): 60.4 nM
viability, T/C [1]: 127%
viability, T/C [2]: 103%
viability, T/C [3]: 92.8%
viability, T/C [4]: 98.6%
viability, T/C [5]: 89.2%
viability, T/C [6]: 59.1%
viability, T/C [7]: 75.2%
viability, T/C [8]: 99.2%
viability, T/C [9]: 97.7%
viability, T/C [10]: 71.3%
viability, T/C [11]: 85%
viability, T/C [12]: 34.4%
viability, T/C [13]: 88.8%
viability, T/C [14]: 128%
viability, T/C [15]: 109%
viability, T/C [16]: 113%
viability, T/C [17]: 73.7%
viability, T/C [18]: 38.3%
viability, T/C [19]: 93.3%
viability, T/C [20]: 89.9%
viability, T/C [21]: 63.7%
viability, T/C [22]: 63.7%
viability, T/C [23]: 70.3%
viability, T/C [24]: 40%
viability, T/C [25]: 63.7%
viability, T/C [26]: 54.4%
viability, T/C [27]: 42.5%
viability, T/C [28]: 30.2%
viability, T/C [29]: 39%
viability, T/C [30]: 11.6%
viability, T/C [31]: 68.4%
viability, T/C [32]: 36.3%
viability, T/C [33]: 14.8%
viability, T/C [34]: 9.87%
viability, T/C [35]: 4.77%
viability, T/C [36]: 1.9%

CC1COCCN1c1cc(-c2ccnn2C)c2ccnc(-c3ccn[nH]3)c2n1 (centres undefined) + CN(C)c1ccc(Nc2c3ccc(NC(=O)CCN4CCCC4)cc3nc3cc(NC(=O)CCN4CCCC4)ccc23)cc1
IC50 (second compound 0.0316 µM): 804 nM
IC50 (second compound 0.1 µM): 500 nM
IC50 (second compound 0.316 µM): 725 nM
IC50 (second compound 1 µM): 1030 nM
IC50 (second compound 3.16 µM): 145 nM
IC50 (second compound 10 µM): < 31.6 nM
viability, T/C [1]: 87%
viability, T/C [2]: 76%
viability, T/C [3]: 76.2%
viability, T/C [4]: 43.6%
viability, T/C [5]: 28.8%
viability, T/C [6]: 25.2%
viability, T/C [7]: 88.4%
viability, T/C [8]: 85.9%
viability, T/C [9]: 55.9%
viability, T/C [10]: 38.5%
viability, T/C [11]: 38.8%
viability, T/C [12]: 23.1%
viability, T/C [13]: 71.8%
viability, T/C [14]: 80.7%
viability, T/C [15]: 60.4%
viability, T/C [16]: 44.5%
viability, T/C [17]: 32.8%
viability, T/C [18]: 22.9%
viability, T/C [19]: 64.6%
viability, T/C [20]: 69.5%
viability, T/C [21]: 61.8%
viability, T/C [22]: 48.2%
viability, T/C [23]: 35%
viability, T/C [24]: 17.2%
viability, T/C [25]: 89%
viability, T/C [26]: 48.3%
viability, T/C [27]: 41.5%
viability, T/C [28]: 24.5%
viability, T/C [29]: 16.4%
viability, T/C [30]: 4.38%
viability, T/C [31]: 27.1%
viability, T/C [32]: 22.1%
viability, T/C [33]: 21.6%
viability, T/C [34]: 14.1%
viability, T/C [35]: 6.17%
viability, T/C [36]: 1.51%
